Assay results published in ChEMBL document CHEMBL4431299 (Medchemcomm, 2016).
The source made the active and inactive calls. The rule behind the calls is not given here.

biological target: Mitogen-activated protein kinase 14 (Mus musculus, UniProt P47811); assay: (§1) Inhibition of kinase tracer 199 binding to mouse inactive p38alpha (2 to 349 residues) expressed in Escherichia coli by microscale thermophoresis assay
Sequence (P47811 whole entry, the tested form may be a part): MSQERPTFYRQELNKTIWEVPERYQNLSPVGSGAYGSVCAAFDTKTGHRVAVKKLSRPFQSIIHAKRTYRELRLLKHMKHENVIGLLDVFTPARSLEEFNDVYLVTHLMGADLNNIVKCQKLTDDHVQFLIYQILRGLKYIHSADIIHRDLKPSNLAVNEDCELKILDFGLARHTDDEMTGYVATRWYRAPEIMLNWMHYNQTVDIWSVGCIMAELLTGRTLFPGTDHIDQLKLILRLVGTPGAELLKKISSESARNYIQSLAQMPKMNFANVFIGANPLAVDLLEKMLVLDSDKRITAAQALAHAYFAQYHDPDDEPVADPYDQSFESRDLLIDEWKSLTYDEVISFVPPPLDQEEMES

SMILES	Ki [nM]
Cc1cccc(-n2nc(C(C)(C)C)cc2NC(=O)Nc2ccc(Cl)cc2)c1	20
Cc1ccccc1-n1nc(C(C)(C)C)cc1NC(=O)Nc1ccc(Cl)cc1	730

Further lines, results first:

Ki [nM]	SMILES
100	CC(C)(C)c1cc(NC(=O)Nc2ccc(Cl)cc2)n(-c2ccccc2)n1
30	Cc1ccc(-n2nc(C(C)(C)C)cc2NC(=O)Nc2ccc(Cl)cc2)cc1

biological target: Mitogen-activated protein kinase 14 (Mus musculus) (UniProt P47811); assay: as §1
Sequence (P47811 whole entry): as the sequence (P47811 whole entry, the tested form may be a part) above

SMILES	inhibition
CC(C)(C)c1cc(NC(=O)Nc2ccc(Cl)cc2)n(-c2ccccc2F)n1	Active
COc1ccccc1-n1nc(C(C)(C)C)cc1NC(=O)Nc1ccc(Cl)cc1	inactive

The next lines start with the values.

inhibition	SMILES
Active	CC(C)(C)c1cc(NC(=O)Nc2ccc(Cl)cc2)n(-c2ccc(Cl)cc2)n1
Active	COc1ccc(-n2nc(C(C)(C)C)cc2NC(=O)Nc2ccc(Cl)cc2)cc1
Active	CC(C)(C)c1cc(NC(=O)Nc2ccc(Cl)cc2)n(-c2ccc(F)cc2)n1
inactive	CC(C)(C)c1cc(NC(=O)Nc2ccc(Cl)cc2)n(-c2ccccc2Cl)n1
